Data reported in patent publication US20240150369A1, “CYCLIN-DEPENDENT KINASE INHIBITING COMPOUNDS FOR THE TREATMENT OF MEDICAL DISORDERS” (G1 Therapeutics, Inc., priority 2020, published 2024).

Legend:
Assay type in all cases: biochemical
[1] = target: CDK2/Cyclin E (Homo sapiens (Human), UniProt P24941); assay: CDK2/Cyclin E kinase assay (Nanosyn, Caliper microfluidic); settings: 12-point dose-response, singlicate, at Km for ATP; ATP 100 μM; 3 hr
Method: (§1) Selected compounds disclosed herein were tested in kinase assays by Nanosyn (Santa Clara, CA) to determine their inhibitory effect on these CDKs. The assays were performed using microfluidic kinase detection technology (Caliper Assay Platform). The compounds were tested in 12-point dose-response format in singlicate at Km for ATP. Specifics of each assay are as described below:
CDK2/Cyclin E: Enzyme concentration: 0.15 nM; ATP concentration: 100 μM; Incubation time: 3 hr.

[2] = target: CDK7 (Homo sapiens (Human), UniProt P50613); assay: CDK7 kinase assay (Nanosyn, Caliper microfluidic); settings: 12-point dose-response, singlicate, at Km for ATP
Method: as §1, with “ATP.” for “ATP. Specifics of each assay are as described below:”

[3] = target: CDK4/Cyclin D1 (Homo sapiens (Human), UniProt P11802); assay: CDK4/Cyclin D1 kinase assay (Nanosyn, Caliper microfluidic); settings: 12-point dose-response, singlicate, at Km for ATP; ATP 200 μM; 3 hr
Method: as §1
CDK4/Cyclin D1: Enzyme concentration: 1 nM; ATP concentration: 200 μM; Incubation time: 3 hr.

[4] = target: CDK6/Cyclin D3 (Homo sapiens (Human), UniProt Q00534); assay: CDK6/Cyclin D3 kinase assay (Nanosyn, Caliper microfluidic); settings: 12-point dose-response, singlicate, at Km for ATP; ATP 300 μM; 3 hr
Method: as §1
CDK6/Cyclin D3: Enzyme concentration: 2 nM; ATP concentration: 300 μM; Incubation time: 3 hr.

[5] = target: CDK3-CYCLIN-E (Homo sapiens (Human), UniProt Q00526); assay: CDK3-Cyclin-E kinase assay (Nanosyn, Caliper microfluidic); settings: 12-point dose-response, singlicate, at Km for ATP
Method: as §1, with “ATP.” for “ATP. Specifics of each assay are as described below:”

[6] = target: CDK2/Cyclin A (Homo sapiens (Human), UniProt P24941); assay: CDK2/Cyclin A kinase assay (Nanosyn, Caliper microfluidic); settings: 12-point dose-response, singlicate, at Km for ATP; ATP 50 μM; 3 hr
Method: as §1
CDK2/Cyclin A: Enzyme concentration: 0.1 nM; ATP concentration: 50 μM; Incubation time: 3 hr.

[7] = target: CDK9/Cyclin T1 (Homo sapiens (Human), UniProt P50750); assay: CDK9/Cyclin T1 kinase assay (Nanosyn, Caliper microfluidic); settings: 12-point dose-response, singlicate, at Km for ATP; ATP 10 μM; 17 hr
Method: as §1
CDK9/Cyclin T1: Enzyme concentration: 5 nM; ATP concentration: 10 μM; Incubation time: 17 hr.

[8] = target: CDK1/Cyclin B1 (Homo sapiens (Human), UniProt P06493); assay: CDK1/Cyclin B1 kinase assay (Nanosyn, Caliper microfluidic); settings: 12-point dose-response, singlicate, at Km for ATP; ATP 40 μM; 3 hr
Method: as §1
CDK1/Cyclin B1: Enzyme concentration: 0.08 nM; ATP concentration: 40 μM; Incubation time: 3 hr.

CDK7, sequence (P50613 whole entry): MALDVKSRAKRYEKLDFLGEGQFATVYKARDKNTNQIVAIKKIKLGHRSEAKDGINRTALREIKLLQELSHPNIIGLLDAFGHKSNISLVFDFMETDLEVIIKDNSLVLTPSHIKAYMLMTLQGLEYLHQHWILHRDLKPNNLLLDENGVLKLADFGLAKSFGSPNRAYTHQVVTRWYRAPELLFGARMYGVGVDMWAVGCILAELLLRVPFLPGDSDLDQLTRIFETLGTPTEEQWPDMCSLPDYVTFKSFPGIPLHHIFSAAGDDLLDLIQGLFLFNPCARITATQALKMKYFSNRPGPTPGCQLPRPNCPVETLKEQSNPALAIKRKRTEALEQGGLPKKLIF
CDK7, sequence (P51946 whole entry partner): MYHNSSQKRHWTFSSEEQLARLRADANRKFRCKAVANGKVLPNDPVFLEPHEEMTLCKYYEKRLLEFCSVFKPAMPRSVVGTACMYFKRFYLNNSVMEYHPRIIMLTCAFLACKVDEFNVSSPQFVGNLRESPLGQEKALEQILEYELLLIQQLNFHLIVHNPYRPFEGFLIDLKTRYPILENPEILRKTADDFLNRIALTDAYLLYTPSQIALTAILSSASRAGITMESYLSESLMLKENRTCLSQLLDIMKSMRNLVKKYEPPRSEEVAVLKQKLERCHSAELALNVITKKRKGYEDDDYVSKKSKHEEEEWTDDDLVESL
CDK7, sequence (P51948 whole entry partner): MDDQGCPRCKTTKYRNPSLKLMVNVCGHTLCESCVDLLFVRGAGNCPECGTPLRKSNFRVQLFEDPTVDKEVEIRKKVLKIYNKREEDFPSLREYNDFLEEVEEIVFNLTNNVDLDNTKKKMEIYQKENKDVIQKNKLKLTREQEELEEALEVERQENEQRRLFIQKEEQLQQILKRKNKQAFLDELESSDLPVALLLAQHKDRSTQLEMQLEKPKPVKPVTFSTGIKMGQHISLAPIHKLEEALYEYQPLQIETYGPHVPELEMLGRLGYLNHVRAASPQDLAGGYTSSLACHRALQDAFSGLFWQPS
CDK9/Cyclin T1, sequence (P50750 whole entry): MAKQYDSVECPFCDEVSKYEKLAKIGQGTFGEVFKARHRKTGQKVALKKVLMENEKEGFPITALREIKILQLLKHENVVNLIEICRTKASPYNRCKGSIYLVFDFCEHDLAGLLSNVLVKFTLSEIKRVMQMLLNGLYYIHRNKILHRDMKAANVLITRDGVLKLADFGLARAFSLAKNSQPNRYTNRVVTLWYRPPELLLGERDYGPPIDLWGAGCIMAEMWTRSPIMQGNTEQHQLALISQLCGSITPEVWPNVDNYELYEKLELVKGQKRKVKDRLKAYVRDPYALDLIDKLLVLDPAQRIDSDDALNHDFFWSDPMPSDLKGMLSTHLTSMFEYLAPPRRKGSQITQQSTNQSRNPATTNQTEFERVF
CDK9/Cyclin T1, sequence (O60563 whole entry partner): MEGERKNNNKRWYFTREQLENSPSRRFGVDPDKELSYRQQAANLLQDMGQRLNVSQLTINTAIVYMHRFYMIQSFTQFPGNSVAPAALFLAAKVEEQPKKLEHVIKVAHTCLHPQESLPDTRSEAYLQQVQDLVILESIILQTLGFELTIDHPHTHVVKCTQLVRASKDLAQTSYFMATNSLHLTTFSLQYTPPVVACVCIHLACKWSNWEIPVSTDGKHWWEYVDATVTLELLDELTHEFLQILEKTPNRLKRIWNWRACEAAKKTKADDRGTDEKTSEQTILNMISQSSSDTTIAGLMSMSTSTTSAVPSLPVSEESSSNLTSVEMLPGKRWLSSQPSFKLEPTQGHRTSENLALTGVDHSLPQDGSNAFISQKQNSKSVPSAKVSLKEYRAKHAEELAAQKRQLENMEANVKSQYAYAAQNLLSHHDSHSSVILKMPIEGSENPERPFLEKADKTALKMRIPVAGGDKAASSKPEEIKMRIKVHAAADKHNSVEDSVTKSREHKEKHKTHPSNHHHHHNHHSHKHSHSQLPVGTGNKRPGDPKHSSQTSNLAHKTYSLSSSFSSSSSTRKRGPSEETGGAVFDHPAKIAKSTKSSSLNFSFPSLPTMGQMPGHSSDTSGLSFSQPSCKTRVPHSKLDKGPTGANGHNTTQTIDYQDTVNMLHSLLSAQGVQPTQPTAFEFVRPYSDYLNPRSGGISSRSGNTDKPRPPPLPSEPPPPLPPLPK
CDK1/Cyclin B1, sequence (P06493 whole entry): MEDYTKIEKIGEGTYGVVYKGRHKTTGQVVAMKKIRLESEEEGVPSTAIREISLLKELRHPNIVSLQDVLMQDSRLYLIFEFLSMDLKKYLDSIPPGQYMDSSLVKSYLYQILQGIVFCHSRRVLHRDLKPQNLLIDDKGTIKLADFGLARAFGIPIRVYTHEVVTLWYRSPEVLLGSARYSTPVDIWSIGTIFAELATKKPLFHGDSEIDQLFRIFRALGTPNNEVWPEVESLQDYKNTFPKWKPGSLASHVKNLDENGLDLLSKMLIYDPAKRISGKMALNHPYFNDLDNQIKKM
CDK1/Cyclin B1, sequence (P14635 whole entry partner): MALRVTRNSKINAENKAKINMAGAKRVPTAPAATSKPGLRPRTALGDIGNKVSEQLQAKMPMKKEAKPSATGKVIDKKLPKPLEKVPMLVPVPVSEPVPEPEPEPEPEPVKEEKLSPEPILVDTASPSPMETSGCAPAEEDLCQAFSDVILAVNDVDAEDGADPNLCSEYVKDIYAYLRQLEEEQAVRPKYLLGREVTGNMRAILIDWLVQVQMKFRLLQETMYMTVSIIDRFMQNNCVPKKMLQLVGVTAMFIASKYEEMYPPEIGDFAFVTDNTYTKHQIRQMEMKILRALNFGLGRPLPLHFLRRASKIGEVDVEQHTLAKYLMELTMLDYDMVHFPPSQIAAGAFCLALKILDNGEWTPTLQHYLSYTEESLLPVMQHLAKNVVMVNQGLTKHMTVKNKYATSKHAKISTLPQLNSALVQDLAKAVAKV
CDK6/Cyclin D3, sequence (Q00534 whole entry): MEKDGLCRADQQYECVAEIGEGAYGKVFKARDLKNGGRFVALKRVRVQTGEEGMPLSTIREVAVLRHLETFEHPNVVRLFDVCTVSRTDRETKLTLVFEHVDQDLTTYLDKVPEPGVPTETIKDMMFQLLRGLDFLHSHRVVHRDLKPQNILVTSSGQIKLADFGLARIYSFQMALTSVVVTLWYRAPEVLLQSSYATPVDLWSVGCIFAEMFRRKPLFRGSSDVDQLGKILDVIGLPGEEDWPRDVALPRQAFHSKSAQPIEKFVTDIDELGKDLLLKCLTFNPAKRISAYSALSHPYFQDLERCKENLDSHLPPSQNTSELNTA
CDK6/Cyclin D3, sequence (P30281 whole entry partner): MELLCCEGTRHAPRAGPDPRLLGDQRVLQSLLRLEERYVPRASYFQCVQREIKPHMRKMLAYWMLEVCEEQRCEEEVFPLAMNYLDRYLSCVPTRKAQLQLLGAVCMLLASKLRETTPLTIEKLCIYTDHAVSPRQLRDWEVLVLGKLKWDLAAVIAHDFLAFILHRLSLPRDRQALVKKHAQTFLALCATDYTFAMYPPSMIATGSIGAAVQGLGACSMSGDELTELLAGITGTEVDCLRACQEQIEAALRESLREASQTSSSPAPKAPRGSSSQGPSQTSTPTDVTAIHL
CDK4/Cyclin D1, sequence (P11802 whole entry): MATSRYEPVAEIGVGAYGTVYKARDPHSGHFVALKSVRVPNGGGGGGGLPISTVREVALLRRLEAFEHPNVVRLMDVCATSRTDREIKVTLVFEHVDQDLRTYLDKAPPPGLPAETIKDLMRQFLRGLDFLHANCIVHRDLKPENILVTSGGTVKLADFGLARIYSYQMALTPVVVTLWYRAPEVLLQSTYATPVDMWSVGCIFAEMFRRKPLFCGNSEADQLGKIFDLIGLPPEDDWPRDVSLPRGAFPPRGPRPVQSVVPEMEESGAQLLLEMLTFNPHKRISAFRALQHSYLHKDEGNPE
CDK4/Cyclin D1, sequence (P24385 whole entry partner): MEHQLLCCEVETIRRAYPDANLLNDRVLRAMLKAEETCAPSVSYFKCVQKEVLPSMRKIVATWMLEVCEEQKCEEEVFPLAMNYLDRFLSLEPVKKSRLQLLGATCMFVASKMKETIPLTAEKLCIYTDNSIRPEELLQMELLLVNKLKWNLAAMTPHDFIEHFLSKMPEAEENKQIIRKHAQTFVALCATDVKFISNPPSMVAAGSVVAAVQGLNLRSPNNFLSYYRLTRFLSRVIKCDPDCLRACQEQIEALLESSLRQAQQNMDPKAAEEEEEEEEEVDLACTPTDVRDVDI

| IC50 [1] | IC50 [2] | IC50 [3] | IC50 [4] | IC50 [5] | IC50 [6] | IC50 [7] | IC50 [8] | SMILES |
| --- | --- | --- | --- | --- | --- | --- | --- | --- |
| 1 nM | 682 nM | 19 nM | 45 nM | 6 nM | 1 nM | 11 nM | 20 nM | NS(=O)(=O)c1ccc(Nc2ncc3cc4n(c3n2)C2(CCCCC2)C(=O)N[C@@H]4CF)cc1 [Compound 23, (S)-4-((6′-(fluoromethyl)-8′-oxo-7′,8′-dihydro-6′H-spiro[cyclohexane-1,9′-pyrazino[1′2′:1,5]pyrrolo[2,3-d]pyrimidin]-2′-yl)amino)benzenesulfonamide] |
| 1 nM | 144 nM | 3 nM | 7 nM | 8 nM | 2 nM | 7 nM | 12 nM | CN1CCN(C(=O)c2ccc(Nc3ncc4cc5n(c4n3)C3(CCCCC3)CC(=O)N5)cc2)CC1 [Compound 54, 2′-((4-(4-methylpiperazine-1-carbonyl)phenyl)amino)-6′H-spiro[cyclohexane-1,9′-pyrrolo[1,5-a:2,3-d′]dipyrimidin]-7′(8′H)-one] |
| 4 nM | > 1000 nM | 17 nM | 40 nM | 58 nM | 17 nM | 190 nM | 133 nM | O=C(c1ccc(Nc2ncc3cc4n(c3n2)C2(CCCCC2)C(=O)NN4)cc1)N1CCNCC1 [Compound 61, 7′-((4-(piperazine-1-carbonyl)phenyl)amino)-1′,2′-dihydro-3′H-spiro[cyclohexane-1,4′-pyrimido[5′,4′:4,5]pyrrolo[2,1-c][1,2,4]triazin]-3′-one] |
| 3 nM |  | 9 nM | 15 nM |  | 4 nM | 9 nM | 15 nM | CC1C(=O)Nc2cc3cnc(Nc4ccc(C(=O)N5CCN(C)CC5)cc4)nc3n2C12CCCCC2 (stereo not drawn) [Compound 71, 8′-methyl-2′-((4-(4-methylpiperazine-1-carbonyl)phenyl)amino)-6′H-spiro[cyclohexane-1,9′-pyrrolo[1,5-a:2,3-d′]dipyrimidin]-7′(8′H)-one] |
| 19 nM | > 1000 nM | 436 nM | > 1000 nM | 73 nM | 16 nM | 240 nM | 108 nM | CC1=NNc2cc3cnc(Nc4ccc(S(N)(=O)=O)cc4)nc3n2C12CCCCC2 [Compound 45, 4-((3′-methyl-1′H-spiro[cyclohexane-1,4′-pyrimido[5′,4′:4,5]pyrrolo[2,1-c][1,2,4]triazin]-7′-yl)amino)benzenesulfonamide] |
| 4 nM |  |  |  | 29 nM | 4 nM | 21 nM | 33 nM | CC1C(=O)N(C)c2cc3cnc(Nc4ccc(S(N)(=O)=O)cc4)nc3n2C12CCCCC2 (stereo not drawn) [Compound 43, 4-((6′,8′-dimethyl-7′-oxo-7′,8′-dihydro-6′H-spiro[cyclohexane-1,9′-pyrrolo[1,5-a:2,3-d′]dipyrimidin]-2′-yl)amino)benzenesulfonamide] |
| 3 nM | 16 nM | 137 nM | 123 nM | 57 nM | 5 nM | 5 nM | 42 nM | CC1C(=O)Nc2cc3cnc(Nc4ccc(S(=O)(=O)N5CCN(C)CC5)cc4)nc3n2C12CCCCC2 (stereo not drawn) [Compound 59, 8′-methyl-2′-((4-((4-methylpiperazin-1-yl)sulfonyl)phenyl)amino)-6′H-spiro[cyclohexane-1,9′-pyrrolo[1,5-a:2,3-d′]dipyrimidin]-7′(8′H)-one] |
| 5 nM | 66 nM | 41 nM | 63 nM | 23 nM | 4 nM | 5 nM | 31 nM | CN1CCN(S(=O)(=O)c2ccc(Nc3ncc4cc5n(c4n3)C3(CCCCC3)CC(=O)N5)cc2)CC1 [Compound 51, 2′-((4-((4-methylpiperazin-1-yl)sulfonyl)phenyl)amino)-6′H-spiro[cyclohexane-1,9′-pyrrolo[1,5-a:2,3-d′]dipyrimidin]-7′(8′H)-one] |
| 1 nM | 27 nM | 0.3 nM | 0.4 nM | 6 nM | 0.6 nM | 1 nM | 5 nM | O=C1NCC2(CCCCC2)n2c1cc1cnc(Nc3ccc(C(=O)N4CCNCC4)cc3)nc12 [Compound 55, 2′-((4-(piperazine-1-carbonyl)phenyl)amino)-7′,8′-dihydro-6′H-spiro[cyclohexane-1,9′-pyrazino[1′,2′:1,5]pyrrolo[2,3-d]pyrimidin]-6′-one] |
| 23 nM | > 1000 nM | 132 nM | 417 nM | 105 nM | 85 nM | 85 nM | 505 nM | CNC(=O)c1ccc(Nc2ncc3cc4n(c3n2)C2(CCCCC2)C(=O)NN4)cc1 [Compound 64, N-methyl-4-((3′-oxo-2′,3′-dihydro-1′H-spiro[cyclohexane-1,4′-pyrimido[5′,4′:4,5]pyrrolo[2,1-c][1,2,4]triazin]-7′-yl)amino)benzamide] |
| 1 nM |  |  |  | 10 nM | 1 nM | 6 nM | 7 nM | CC1C(=O)Nc2cc3cnc(Nc4ccc(S(N)(=O)=O)cc4)nc3n2C12CCCCC2 (stereo not drawn) [Compound 42, 4-((8′-methyl-7′-oxo-7′,8′-dihydro-6′H-spiro[cyclohexane-1,9′-pyrrolo[1,5-a:2,3-d′]dipyrimidin]-2′-yl)amino)benzenesulfonamide] |
| 5 nM |  | 172 nM | 291 nM |  | 16 nM | 89 nM | 146 nM | CS(=N)(=O)c1ccc(Nc2ncc3cc4n(c3n2)C2(CCCCC2)C(=O)NN4)cc1 (stereo not drawn) [Compound 79, 7′-((4-(S-methylsulfonimidoyl)phenyl)amino)-1′,2′-dihydro-3′H-spiro[cyclohexane-1,4′-pyrimido[5′,4′:4,5]pyrrolo[2,1-c][1,2,4]triazin]-3′-one] |
| 33 nM | 579 nM | 253 nM | 578 nM | 96 nM | 81 nM | 118 nM | 574 nM | NC(=O)c1ccc(Nc2ncc3cc4n(c3n2)C2(CCCCC2)C(=O)NN4)cc1 [Compound 63, 4-((3′-oxo-2′,3′-dihydro-1′H-spiro[cyclohexane-1,4′-pyrimido[5′,4′:4,5]pyrrolo[2,1-c][1,2,4]triazin]-7′-yl)amino)benzamide] |
| 2 nM | 723 nM | 22 nM | 83 nM | 13 nM | 2 nM | 9 nM | 14 nM | CC1=NN(C)c2cc3cnc(Nc4ccc(S(N)(=O)=O)cc4)nc3n2C12CCCCC2 [Compound 46, 4-((1′,3′-dimethyl-1′H-spiro[cyclohexane-1,4′-pyrimido[5′,4′:4,5]pyrrolo[2,1-c][1,2,4]triazin]-7′-yl)amino)benzenesulfonamide] |
| 287 nM |  | 361 nM | 920 nM |  | 322 nM | 183 nM | > 1000 nM | Nc1ccc(S(=O)(=O)Nc2ncc3cc4n(c3n2)C2(CCCCC2)CNC4=O)cc1 [Compound 91, 4-amino-N-(6′-oxo-7′,8′-dihydro-6′H-spiro[cyclohexane-1,9′-pyrazino[1′,2′:1,5]pyrrolo[2,3-d]pyrimidin]-2′-yl)benzenesulfonamide] |
| 207 nM |  | > 1000 nM | > 1000 nM |  | 571 nM | > 1000 nM | > 1000 nM | Nc1ccc(S(=O)(=O)Nc2ncc3cc4n(c3n2)C2(CCCCC2)C(=O)NN4)cc1 [Compound 84, 4-amino-N-(3′-oxo-2′,3′-dihydro-1′H-spiro[cyclohexane-1,4′-pyrimido[5′,4′:4,5]pyrrolo[2,1-c][1,2,4]triazin]-7′-yl)benzenesulfonamide] |
| 349 nM |  | 595 nM | > 1000 nM |  | 841 nM | 284 nM | > 1000 nM | CNC(=O)Nc1ccc(Nc2ncc3cc4n(c3n2)C2(CCCCC2)C(=O)NN4)cc1 [Compound 68, 1-methyl-3-(4-((3′-oxo-2′,3′-dihydro-1′H-spiro[cyclohexane-1,4′-pyrimido[5′,4′:4,5]pyrrolo[2,1-c][1,2,4]triazin]-7′-yl)amino)phenyl)urea] |
